Data published in publication PMC10904284 (iScience, 2024).

Target: CLso STP (Candidatus Liberibacter solanacearum, UniProt A0A094YYW1)
Format: binding

CLso STP, sequence (A0A094YYW1 1-207): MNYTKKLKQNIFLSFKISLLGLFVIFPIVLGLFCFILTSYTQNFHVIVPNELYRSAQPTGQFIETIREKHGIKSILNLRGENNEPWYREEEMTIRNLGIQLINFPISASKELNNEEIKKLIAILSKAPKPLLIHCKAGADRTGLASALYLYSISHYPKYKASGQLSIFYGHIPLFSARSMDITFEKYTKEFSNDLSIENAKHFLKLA

In the case of Glucose 6-phosphate [G6P], the Ka was 17.58 M⁻¹ s⁻¹.
